Laboratory results from patent US8987287B2, “Spirocyclic morphinans and their use” (Purdue Pharma L.P., priority 2012, dated 2015).
Like-named read-outs stand apart in the source and are kept apart here.

Key:
μ-opioid receptor [1] = biological target: T1, μ-opioid receptor (Homo sapiens (Human), UniProt P35372); assay: μ-opioid receptor radioligand ([3H]-diprenorphine) dose-displacement binding assay; settings: binding affinity
Protocol: μ-Opioid Receptor Binding Assay Procedures: Radioligand dose-displacement binding assays for μ-opioid receptors used 0.3 nM [^3H]-diprenorphine (Perkin Elmer, Shelton, Conn.), with […] membrane protein/well in a final volume of 500 μl binding buffer (10 mM MgCl2, 1 mM EDTA, 5% DMSO, 50 mM HEPES, pH 7.4). Reactions were carried out in the absence or presence of increasing concentrations of unlabeled naloxone. All reactions were conducted in 96-deep well polypropylene plates for 2 hours at room temperature. Binding reactions were terminated by rapid filtration onto 96-well Unifilter GF/C filter plates (Perkin Elmer, Shelton, Conn.), presoaked in 0.5% polyethylenimine using a 96-well tissue harvester (Perkin Elmer, Shelton, Conn.) followed by performing three filtration washes with 500 μl of ice-cold binding buffer. Filter plates were subsequently dried at 50° C. for 2-3 hours. BetaScint scintillation cocktail (Perkin Elmer, Shelton, Conn.) was added (50 μl/well), and plates were counted using a Packard Top-Count for 1 min/well. The data were analyzed using the one-site competition curve fitting functions in GraphPad PRISM™ v. 3.0 or higher (San Diego, Calif.), or an in-house function for one-site competition curve-fitting.
(§1) In TABLE 1, binding affinity of certain Compounds of the Invention to the μ-, δ- and κ-opioid receptors was determined as described above.

κ opioid receptor [2] = biological target: T2, κ opioid receptor (Homo sapiens (Human), UniProt P41145); assay: κ-opioid receptor radioligand ([3H]-U69,593) dose-displacement binding assay; settings: binding affinity
Protocol: κ-Opioid Receptor Binding Assay Procedures: Membranes from recombinantHEK-293 cells, CHO or U-2 OS cells expressing the recombinant human κ opioid receptor (κ) were prepared by lysing cells in ice cold hypotonic buffer (2.5 mM MgCl2, 50 mM HEPES, pH 7.4) (10 mL/10 cm dish) followed by homogenization with a tissue grinder/Teflon pestle. Membranes were collected by centrifugation at 30,000×g for 15 min at 4° C. and pellets were resuspended in hypotonic buffer to a final concentration of 1-3 mg/mL. Protein concentrations were determined using the BioRad protein assay reagent with bovine serum albumen as standard. Aliquots of κ receptor membranes were stored at −80° C.
Radioligand dose displacement assays used 0.4 nM [^3H]-U69,593 (GE Healthcare, Piscataway, N.J.; 40 Ci/mmole) with 15 μg membrane protein (recombinant κ opioid receptor expressed in HEK 293 cells; in-house prep) in a final volume of 200 μl binding buffer (5% DMSO, 50 mM Trizma base, pH 7.4). Non-specific binding was determined in the presence of 10 μM unlabeled naloxone or U69,593. All reactions were performed in 96-well polypropylene plates for 1 hour at a temperature of about 25° C. Binding reactions were terminated by rapid filtration onto 96-well Unifilter GF/C filter plates (Perkin Elmer, Shelton, Conn.) presoaked in 0.5% polyethylenimine (Sigma). Harvesting was performed using a 96-well tissue harvester (Perkin Elmer, Shelton, Conn.) followed by five filtration washes with 200 μl ice-cold binding buffer. Filter plates were subsequently dried at 50° C. for 1-2 hours. Fifty μl/well scintillation cocktail (Perkin Elmer, Shelton, Conn.) was added and plates were counted in a Packard Top-Count for 1 min/well.
as §1

μ-opioid receptor [3] = biological target: T1, μ-opioid receptor; assay: μ-opioid receptor [35S]GTPγS functional assay, HEK-293 or CHO cells; assay type: biochemical
Protocol: μ-Opioid Receptor Functional Assay Procedures: [^35S]GTPγS functional assays were conducted using freshly thawed μ-receptor membranes prepared in-house from a cell line expressing recombinant μ opioid receptor in a HEK-293, CHO or U-2 OS cell background, or purchased from a commercial source (Perkin Elmer, Shelton, Conn.; or DiscovRx, Fremont, Calif.). Assay reactions were prepared by sequentially adding the following reagents to binding buffer (100 mM NaCl, 10 mM MgCl2, 20 mM HEPES, pH 7.4) on ice (final concentrations indicated): membrane protein (0.026 mg/mL), saponin ([…]), GDP ([…]) and [^35S]GTPγS (0.20 nM; Perkin Elmer, Shelton, Conn.). The prepared membrane solution (190 μl/well) was transferred to 96-shallow well polypropylene plates containing 10 μl of 20× concentrated stock solutions of the agonist [D-Ala^2, N-methyl-Phe^4 Gly-ol^5]-enkephalin (DAMGO) prepared in dimethyl sulfoxide (DMSO). Plates were incubated for 30 min at about 25° C. with shaking. Reactions were terminated by rapid filtration onto 96-well Unifilter GF/B filter plates (Perkin Elmer, Shelton, Conn.) using a 96-well tissue harvester (Perkin Elmer, Shelton, Conn.) followed by three filtration washes with 200 μl of ice-cold wash buffer (10 mM NaH2PO4, 10 mM Na2HPO4, pH 7.4). Filter plates were subsequently dried at 50° C. for 2-3 hours. BetaScint scintillation cocktail (Perkin Elmer, Shelton, Conn.) was added (50 μl/well) and plates were counted using a Packard Top-Count for 1 min/well. Data were analyzed using the sigmoidal dose-response curve fitting functions in GraphPad PRISM v. 3.0, or an in-house function for non-linear, sigmoidal dose-response curve-fitting.
μ-Opioid Receptor Functional Data: μ GTP EC50 is the concentration of a compound providing 50% of the maximal response for the compound at a μ-opioid receptor.
μ GTP Emax (%) is the maximal effect elicited by a compound relative to the effect elicited by DAMGO, a standard μ agonist. Generally, the μ GTP Emax (%) value measures the efficacy of a compound to treat or prevent pain or other Conditions.
(§2) In TABLE 2, activity response of certain Compounds of the Invention to the μ-, δ- and κ-opioid receptors was determined as described above for functional assays using HEK-293 or CHO cells.

κ opioid receptor [4] = biological target: T2, κ opioid receptor; assay: κ-opioid receptor [35S]GTPγS functional assay, HEK-293 or CHO cells; assay type: biochemical
Protocol: κ-Opioid Receptor Functional Assay Procedures: Functional [^35S]GTPγS binding assays were conducted as follows. κ opioid receptor membrane solution was prepared by sequentially adding final concentrations of 0.026 μg/μl κ membrane protein (in-house), 10 μg/mL saponin, 3 μM GDP and 0.20 nM [^35S]GTPγS to binding buffer (100 mM NaCl, 10 mM MgCl2, 20 mM HEPES, pH 7.4) on ice. The prepared membrane solution (190 μl/well) was transferred to 96-shallow well polypropylene plates containing 10 μl of 20× concentrated stock solutions of agonist prepared in DMSO. Plates were incubated for 30 min at a temperature of about 25° C. with shaking. Reactions were terminated by rapid filtration onto 96-well Unifilter GF/B filter plates (Perkin Elmer, Shelton, Conn.) using a 96-well tissue harvester (Packard) and followed by three filtration washes with 200 μl ice-cold binding buffer (10 mM NaH2PO4, 10 mM Na2HPO4, pH 7.4). Filter plates were subsequently dried at 50° C. for 2-3 hours. Fifty μl/well scintillation cocktail (Perkin Elmer, Shelton, Conn.) was added and plates were counted in a Packard Top-Count for 1 min/well.
κ-Opioid Receptor Functional Data: κ GTP EC50 is the concentration of a compound providing 50% of the maximal response for the compound at a κ receptor.
κ GTP Emax (%) is the maximal effect elicited by a compound relative to the effect elicited by U69,593.
as §2

μ-opioid receptor [5] = biological target: T1, μ-opioid receptor; assay: μ-opioid receptor [35S]GTPγS functional assay, U-2 OS cells; assay type: biochemical; settings: for Emax: relative to DAMGO, U-2 OS cells
κ opioid receptor [6] = biological target: T2, κ opioid receptor; assay: κ-opioid receptor [35S]GTPγS functional assay, U-2 OS cells; assay type: biochemical; settings: for Emax: relative to U69,593, U-2 OS cells
[7] = read-out: Opioid Receptor Ki (nM) μ
[8] = read-out: Opioid Receptor Ki (nM) κ
[9] = relative to DAMGO, HEK-293 or CHO cells
[10] = relative to U69,593, HEK-293 or CHO cells
[11] = bound given in μM, read-out: Opioid Receptor Ki κ

Compound	Ki (μ-opioid receptor [1]; [7])	Ki (κ opioid receptor [2]; [8])	EC50 (μ-opioid receptor [3])	Emax (μ-opioid receptor [3]; [9])	EC50 (κ opioid receptor [4])	Emax (κ opioid receptor [4]; [10])	also measured
COc1ccc2c(c1)[C@]13CCN(CC4CC4)[C@H](C2)[C@]1(O)CC[C@@]1(C3)NC(=O)NC1=O [Compound 2, (4bR,4′S,8aS,9R)-11-(cyclopropylmethyl)-8a-hydroxy-3-methoxy-5,7,8,8a,9,10-hexahydrospiro[9,4b-(epiminoethano)phenanthrene-6,4′-imidazolidine]-2′,5′-dione]	9050 ± 895 nM	130 ± 22.7 nM	1950 ± 37.7 nM	31.3 ± 2.4%	2500 ± 556 nM	63 ± 1.53%	–
COc1ccc2c(c1)[C@]13CCN(CC4CC4)[C@H](C2)[C@]1(O)CC[C@@]1(CNC(=O)N1)C3 [Compound 4, (4bR,4′S,8aS,9R)-11-(cyclopropylmethyl)-8a-hydroxy-3-methoxy-5,7,8,8a,9,10-hexahydrospiro[9,4b-(epiminoethano)phenanthrene-6,4′-imidazolidin]-2′-one]	–	135 ± 38.1 nM	809 ± 143 nM	20.7 ± 0.67%	901 ± 389 nM	44.3 ± 1.45%	–
COc1ccc2c(c1)[C@]13CCN(CC4CC4)[C@H](C2)[C@@H]1CC[C@@]1(C3)NC(=O)NC1=O [Compound 6, (4bS,4′S,8aR,9R)-11-(cyclopropylmethyl)-3-methoxy-5,7,8,8a,9,10-hexahydrospiro[9,4b-(epiminoethano)phenanthrene-6,4′-imidazolidine]-2′,5′-dione]	–	12.2 ± 2.61 nM	1460 ± 121 nM	58.3 ± 5.24%	1230 ± 380 nM	89.7 ± 3.53%	–
O=C1NC(=O)[C@@]2(CC[C@H]3[C@H]4Cc5ccc(O)cc5[C@@]3(CCN4CC3CC3)C2)N1 [Compound 7, (4bS,4′S,8aR,9R)-11-(cyclopropylmethyl)-3-hydroxy-5,7,8,8a,9,10-hexahydrospiro[9,4b-(epiminoethano)phenanthrene-6,4′-imidazolidine]-2′,5′-dione]	8.39 ± 2.72 nM	0.23 ± 0.05 nM	3.76 ± 0.41 nM	37 ± 4.04%	3.68 ± 0.99 nM	86.3 ± 2.19%	–
CN1CC[C@]23C[C@]4(CC[C@@]2(O)[C@H]1Cc1ccc(O)cc13)NC(=O)NC4=O [Compound 10, (4bR,4′S,8aS,9R)-3,8a-dihydroxy-11-methyl-5,7,8,8a,9,10-hexahydrospiro[9,4b-(epiminoethano)phenanthrene-6,4′-imidazolidine]-2′,5′-dione]	27 ± 3.07 nM	155 ± 29.5 nM	–	–	–	–	–
COc1ccc2c(c1)[C@]13CCN(Cc4ccccc4)[C@H](C2)[C@]1(O)CC[C@@]1(C3)NC(=O)NC1=O [Compound 11, (4bR,4′S,8aS,9R)-11-benzyl-8a-hydroxy-3-methoxy-5,7,8,8a,9,10-hexahydrospiro[9,4b-(epiminoethano)phenanthrene-6,4′-imidazolidine]-2′,5′-dione]	–	–	–	–	–	–	Ki (μ-opioid receptor [1]; bound given in μM, read-out: Opioid Receptor Ki μ): > 20000 nM; Ki (κ opioid receptor [2]; [11]): > 20000 nM
COc1ccc2c(c1)[C@]13CCN[C@H](C2)[C@]1(O)CC[C@@]1(C3)NC(=O)NC1=O [Compound 12, (4bR,4′S,8aS,9R)-8a-hydroxy-3-methoxy-5,7,8,8a,9,10-hexahydrospiro[9,4b-(epiminoethano)phenanthrene-6,4′-imidazolidine]-2′,5′-dione]	14900 nM	–	–	–	–	–	Ki (κ opioid receptor [2]; [11]): > 20000 nM
CCN1C(=O)NC(=O)[C@@]12CC[C@@]1(O)[C@H]3Cc4ccc(O)cc4[C@@]1(CCN3CC1CC1)C2 [Compound 49, (4S,4b′R,8a′S,9′R)-11′-(cyclopropylmethyl)-3-ethyl-3′,8a′-dihydroxy-8′,8a′,9′,10′-tetrahydro-5′H,7′H-spiro[imidazolidine-4,6′-[9,4b](epiminoethano)phenantrene]-2,5-dione]	2.28 ± 0.62 nM	0.47 ± 0.026 nM	> 20000 nM	1%	6.63 ± 2.21 nM	59.3 ± 4.06%	EC50 (μ-opioid receptor [5]): > 20000 nM; Emax (μ-opioid receptor [5]): 2.5%; EC50 (κ opioid receptor [6]): 1.82 ± 0.098 nM; Emax (κ opioid receptor [6]): 111 ± 3.51%
CN1C(=O)NC(=O)[C@@]12CC[C@@]1(O)[C@H]3Cc4ccc(O)cc4[C@@]1(CCN3CC1CC1)C2 [Compound 63, (4S,4b′R,8a′S,9′R)-11′-(cyclopropylmethyl)-3′,8a′-dihydroxy-3-methyl-8′,8a′,9′,10′-tetrahydro-5′H,7′H-spiro[imidazolidine-4,6′-[9,4b](epiminoethano)phenantrene]-2,5-dione]	0.86 ± 0.11 nM	0.3 ± 0.041 nM	> 20000 nM	1%	3.53 ± 0.43 nM	74.7 ± 1.45%	EC50 (μ-opioid receptor [5]): 0.97 ± 0.053 nM; Emax (μ-opioid receptor [5]): 14.3 ± 0.67%; EC50 (κ opioid receptor [6]): 0.69 ± 0.025 nM; Emax (κ opioid receptor [6]): 108%
(4bS,4′S,8aR,9R)-11-(cyclopropylmethyl)-3-hydroxy-5,7,8,8a,9,10-hexahydrospiro[9,4b-(epiminoethano)phenanthrene-6,4′-imidazolidin]-2′-one [Compound 8]	–	0.2 ± 0.05 nM	–	–	–	–	EC50 (μ-opioid receptor [3]; GTPγS, HEK-293 or CHO cells, read-out: Opioid Receptor μ EC50): 7.39 ± 1.89 nM; Opioid Receptor μ Emax (%) (μ-opioid receptor [3]; [9]): 39.67 ± 3.28%; EC50 (κ opioid receptor [4]; GTPγS, HEK-293 or CHO cells, read-out: Opioid Receptor κ EC50): 27.2 ± 8.1 nM; Opioid Receptor κ Emax (%) (κ opioid receptor [4]; [10]): 91.33 ± 5.04%
